Converted amounts (≈) assume the structure as drawn.
Test system: HT-29 cell line
Assay: SRB assay, antiproliferative activity against HT-29
Format: cell-based, human
Settings: Homo sapiens; 2 h incubation, SRB assay, HT-29
Procedure: (§1) The human adenocarcinoma cell line, HT-29 (ATCC HTB-38), was cultured in αMEM medium (IITD PAN) supplemented with 10% fetal bovine serum, FBS (Sigma-Aldrich, Taufkirchen, Germany), 100 U/mL penicillin, 100 µg/mL streptomycin antibiotic solution (Sigma-Aldrich, Taufkirchen, Germany), and 2 mM glutamine solution (Sigma-Aldrich, Taufkirchen, Germany). Cells from less than 20 passages were used for the study. In turn, preadipocytes from mouse embryos with the morphology of fibroblast cells, line 3T3-L1 (ATCC CL-173), were cultured in DMEM high-glucose medium (Life Technologies Corporation, Carlsbad, CA, USA) with the same supplements as above. Cells from less than 14 passages were used for the study. Both tested cell lines were grown at 37 °C in 5% CO2.
(§2) The effect of O-alkyl derivatives of naringenin and their oximes on eukaryotic cells was checked using a slightly modified SRB test described earlier. Firstly, HT-29 (1 × 10^5 cells/mL) and 3T3-L1 (5 × 10^4 cells/mL) cell lines were incubated in adherent microtiter plates under the conditions described above. The cells were then treated for 2 h with the tested compounds 1a–10a and 1b–10b at concentrations of 1, 5, 10, 25, 50, 75, and 100 µg/mL each. After this time, the medium was removed and replaced with one containing 50% (wt/vol) trichloroacetic acid (TCA; Sigma-Aldrich, Taufkirchen, Germany). Following 1 h of incubation at 4 °C, the plate was rinsed with water, and then an acidic solution of 0.4% sulforhodamine B (SRB) (Sigma-Aldrich, Taufkirchen, Germany), was added to the dried wells and incubated in the dark for half an hour. At the end of this time, the SRB solution was replaced by 1% (vol/vol) acetic acid, and the stained protein precipitate was dissolved in 10 mM Tris base solution (pH 10.5). Absorbance was measured at 560 nm in a plate reader (GloMax Discover Microplate Reader, Promega).
(§3) The cytotoxic effect of O-alkyl derivatives of naringenin and their oximes on eukaryotic cells was expressed as the concentration of the tested compounds at which 50% growth inhibition of the tested cell lines was observed. Values were presented in the form of the survival index (SI)–IC50. All determinations were repeated in three independent experiments, each performed in three technical replicates. Moreover, the effect of DMSO (Sigma-Aldrich, Taufkirchen, Germany), the solvent present in all the initial solutions of the tested compounds, on the growth of the cell lines used in the study was also verified.

Row | Structure (SMILES) | IC50 [µg/mL]
1 | CCCCCCCCCCCOc1ccc([C@@H]2CC(=O)c3c(O)cc(OCCCCCCCCCCC)cc3O2)cc1 [Compound 10a, 7,4’-di-O-undecylnaringenin] | > 100
2 | CCCCCCCCCCCOc1cc(O)c2c(c1)O[C@H](c1ccc(O)cc1)CC2=O [Compound 9a, 7-O-undecylnaringenin] | > 100
3 | CCCCCCCOc1ccc([C@@H]2CC(=NO)c3c(O)cc(OCCCCCCC)cc3O2)cc1 [Compound 4b, 7,4’-di-O-heptylnaringenin oxime] | 43.4 (≈ 89.6 µM)
4 | CCCCCCOc1ccc([C@@H]2CC(=O)c3c(O)cc(OCCCCCC)cc3O2)cc1 [Compound 2a, 7,4’-di-O-hexylnaringenin] | > 100
5 | CCCCCCCCCCCOc1cc(O)c2c(c1)O[C@H](c1ccc(O)cc1)CC2=NO [Compound 9b, 7-O-undecylnaringenin oxime] | > 100
6 | CCCCCCOc1ccc([C@@H]2CC(=NO)c3c(O)cc(OCCCCCC)cc3O2)cc1 [Compound 2b, 7,4’-di-O-hexylnaringenin oxime] | > 100
7 | CCCCCCCCOc1cc(O)c2c(c1)O[C@H](c1ccc(O)cc1)CC2=O [Compound 5a, 7-O-octylnaringenin] | 38.4 (≈ 99.7 µM)
8 | CCCCCCCCCOc1cc(O)c2c(c1)O[C@H](c1ccc(O)cc1)CC2=NO [Compound 7b, 7-O-nonylnaringenin oxime] | 57.8 (≈ 140 µM)
9 | CCCCCCCOc1cc(O)c2c(c1)O[C@H](c1ccc(O)cc1)CC2=O [Compound 3a, 7-O-heptylnaringenin] | 28.7 (≈ 77.5 µM)
10 | CCCCCCCOc1cc(O)c2c(c1)O[C@H](c1ccc(O)cc1)CC2=NO [Compound 3b, 7-O-heptylnaringenin oxime] | 29.1 (≈ 75.6 µM)

Same assay, conditions: SRB, tested concentration range 1–100 µg/mL

Row | Structure (SMILES) | cytotoxic / antiproliferative effect against HT-29 (in words)
11 | CCCCCCCCCCCOc1ccc([C@@H]2CC(=O)c3c(O)cc(OCCCCCCCCCCC)cc3O2)cc1 [Compound 10a, 7,4’-di-O-undecylnaringenin] | no effect
12 | CCCCCCOc1ccc([C@@H]2CC(=O)c3c(O)cc(OCCCCCC)cc3O2)cc1 [Compound 2a, 7,4’-di-O-hexylnaringenin] | no effect
13 | CCCCCCCCOc1cc(O)c2c(c1)O[C@H](c1ccc(O)cc1)CC2=O [Compound 5a, 7-O-octylnaringenin] | antiproliferative activity
14 | CCCCCCCCCOc1cc(O)c2c(c1)O[C@H](c1ccc(O)cc1)CC2=NO [Compound 7b, 7-O-nonylnaringenin oxime] | cytotoxic effects
15 | CCCCCCCOc1cc(O)c2c(c1)O[C@H](c1ccc(O)cc1)CC2=O [Compound 3a, 7-O-heptylnaringenin] | antiproliferative activity
16 | CCCCCCCOc1cc(O)c2c(c1)O[C@H](c1ccc(O)cc1)CC2=NO [Compound 3b, 7-O-heptylnaringenin oxime] | cytotoxic effects

Test system: 3T3-L1 cell line
Assay: SRB assay, antiproliferative activity against 3T3-L1
Format: cell-based, mouse
Settings: Mus musculus; 2 h incubation, SRB assay, 3T3-L1
Procedure: as §1, §2, §3

Row | Structure (SMILES) | IC50 [µg/mL]
17 | CCCCCCCCCCCOc1ccc([C@@H]2CC(=O)c3c(O)cc(OCCCCCCCCCCC)cc3O2)cc1 [Compound 10a, 7,4’-di-O-undecylnaringenin] | > 100
18 | CCCCCCCCCCCOc1cc(O)c2c(c1)O[C@H](c1ccc(O)cc1)CC2=O [Compound 9a, 7-O-undecylnaringenin] | 80.6 (≈ 189 µM)
19 | CCCCCCCOc1ccc([C@@H]2CC(=NO)c3c(O)cc(OCCCCCCC)cc3O2)cc1 [Compound 4b, 7,4’-di-O-heptylnaringenin oxime] | > 100
20 | CCCCCCOc1ccc([C@@H]2CC(=O)c3c(O)cc(OCCCCCC)cc3O2)cc1 [Compound 2a, 7,4’-di-O-hexylnaringenin] | > 100
21 | CCCCCCCCCCCOc1cc(O)c2c(c1)O[C@H](c1ccc(O)cc1)CC2=NO [Compound 9b, 7-O-undecylnaringenin oxime] | > 100
22 | CCCCCCOc1ccc([C@@H]2CC(=NO)c3c(O)cc(OCCCCCC)cc3O2)cc1 [Compound 2b, 7,4’-di-O-hexylnaringenin oxime] | > 100
23 | CCCCCCCCOc1cc(O)c2c(c1)O[C@H](c1ccc(O)cc1)CC2=O [Compound 5a, 7-O-octylnaringenin] | 20.1 (≈ 52.3 µM)
24 | CCCCCCCCCOc1cc(O)c2c(c1)O[C@H](c1ccc(O)cc1)CC2=NO [Compound 7b, 7-O-nonylnaringenin oxime] | 41.6 (≈ 101 µM)
25 | CCCCCCCOc1cc(O)c2c(c1)O[C@H](c1ccc(O)cc1)CC2=O [Compound 3a, 7-O-heptylnaringenin] | 25.6 (≈ 69 µM)
26 | CCCCCCCOc1cc(O)c2c(c1)O[C@H](c1ccc(O)cc1)CC2=NO [Compound 3b, 7-O-heptylnaringenin oxime] | 32.1 (≈ 83.3 µM)

Same assay, conditions: SRB, tested concentration range 1–100 µg/mL

Row | Structure (SMILES) | cytotoxic / antiproliferative effect against 3T3-L1 (in words)
27 | CCCCCCCCCCCOc1ccc([C@@H]2CC(=O)c3c(O)cc(OCCCCCCCCCCC)cc3O2)cc1 [Compound 10a, 7,4’-di-O-undecylnaringenin] | no effect
28 | CCCCCCCCCCCOc1cc(O)c2c(c1)O[C@H](c1ccc(O)cc1)CC2=O [Compound 9a, 7-O-undecylnaringenin] | cytotoxic activity
29 | CCCCCCOc1ccc([C@@H]2CC(=O)c3c(O)cc(OCCCCCC)cc3O2)cc1 [Compound 2a, 7,4’-di-O-hexylnaringenin] | no effect
30 | CCCCCCCCOc1cc(O)c2c(c1)O[C@H](c1ccc(O)cc1)CC2=O [Compound 5a, 7-O-octylnaringenin] | cytotoxic activity
31 | CCCCCCCOc1cc(O)c2c(c1)O[C@H](c1ccc(O)cc1)CC2=O [Compound 3a, 7-O-heptylnaringenin] | cytotoxic activity

Test system: Escherichia coli K12 (ATCC 10798)
Assay: Adhesion assay, static conditions: E. coli to 3T3-L1 cell line
Format: cell-based
Settings: regardless of the concentration used
Procedure: (§4) The study used two reference strains, Escherichia coli K12 (ATCC 10798) and Enterococcus faecalis (ATCC 29212), obtained from the American Type Culture Collection. Both strains were stored in trypticase soy broth (TSB; OXOID, Basingstoke, UK) with the addition of 30% glycerol at −70 °C in the museum resources of the Department of Microbiology at the Wroclaw Medical University.
(§5) For studies determining the interaction of bacteria with eukaryotic cells, suspensions of the tested strains were prepared in Luria broth (LB, Becton, Dickinson and Company, USA) medium with a bacterial density of 6 × 10^8 CFU/mL.
(§6) The adhesion ability of the tested bacterial strains to HT-29 and 3T3-L1 cell lines was determined by an in vitro adhesion assay as described previously. Eukaryotic cells were infected with prokaryotic cells in the presence of the examined compounds in pre-selected concentrations at an MOI (multiplicity of infection) ratio of 50. Cells were exposed to the tested strains and compounds for 2 h. After this time, unbound bacteria were removed by washing with PBS (Life Technologies Corporation, Carlsbad, CA, USA). The lysates acquired by cell lysis (0.5% Triton X-100 in LB): 90 min, 37 °C, 5% CO2 atmosphere, were then seeded onto TSA and MC media for E. faecalis and E. coli, respectively. The assays were performed in at least three independent experiments (cells from subsequent passages), each in triplicate. A control without tested compounds was set for each strain.

Row | Structure (SMILES) | bacterial adhesion disturbed (decrease), E. coli to 3T3-L1
32 | CCCCCCCCCCCOc1ccc([C@@H]2CC(=O)c3c(O)cc(OCCCCCCCCCCC)cc3O2)cc1 [Compound 10a, 7,4’-di-O-undecylnaringenin] | ≈ 2 fold

Test system: Escherichia coli K12 (ATCC 10798)
Assay: Adhesion assay, static conditions: E. coli to HT-29 cell line
Format: cell-based
Settings: 25 µg/mL
Procedure: as §4, §5, §6

Row | Structure (SMILES) | adhesion of E. coli to HT-29 higher than in the control [fold]
33 | CCCCCCCOc1ccc([C@@H]2CC(=NO)c3c(O)cc(OCCCCCCC)cc3O2)cc1 [Compound 4b, 7,4’-di-O-heptylnaringenin oxime] | 17

Same assay, conditions: 50 µg/mL

Row | Structure (SMILES) | adhesion of E. coli to HT-29 higher than in the control [fold]
34 | CCCCCCCOc1ccc([C@@H]2CC(=NO)c3c(O)cc(OCCCCCCC)cc3O2)cc1 [Compound 4b, 7,4’-di-O-heptylnaringenin oxime] | 5

Same assay, conditions: 1–10 µg/mL or 75–100 µg/mL

Row | Structure (SMILES) | level of adherence of E. coli to HT-29
35 | CCCCCCCOc1ccc([C@@H]2CC(=NO)c3c(O)cc(OCCCCCCC)cc3O2)cc1 [Compound 4b, 7,4’-di-O-heptylnaringenin oxime] | very low

Test system: Enterococcus faecalis (ATCC 29212)
Assay: Adhesion assay, static conditions: E. faecalis to 3T3-L1 cell line
Format: cell-based
Settings: not given
Procedure: as §4, §5, §6

Row | Structure (SMILES) | effect on adhesion of E. faecalis to 3T3-L1 (in words)
36 | CCCCCCCCCCCOc1cc(O)c2c(c1)O[C@H](c1ccc(O)cc1)CC2=O [Compound 9a, 7-O-undecylnaringenin] | often actually limited the attachment
37 | CCCCCCCCCCCOc1cc(O)c2c(c1)O[C@H](c1ccc(O)cc1)CC2=NO [Compound 9b, 7-O-undecylnaringenin oxime] | often actually limited the attachment
38 | CCCCCCCCCOc1cc(O)c2c(c1)O[C@H](c1ccc(O)cc1)CC2=NO [Compound 7b, 7-O-nonylnaringenin oxime] | often actually limited the attachment

Reference: publication PMC10294875, “Ether Derivatives of Naringenin and Their Oximes as Factors Modulating Bacterial Adhesion” (Antibiotics, 2023)
